Reference: patent US7745589B1, “Antibodies and unnatural substrates of prenylation enzymes for use in detecting and isolating prenylated proteins” (University of Kentucky Research Foundation, priority 2005, dated 2010)

Assays:
anti-NAG antibodies = assay: Western analysis of H-Ras modified by FTase with aniline analogs, probed with Anti-NAG; type: binding, rabbits; conditions: H-Ras reacted with analog by FTase, FIG. 11B
anti-AG antibody = assay: Western analysis of H-Ras modified by FTase with aniline analogs, probed with Anti-AG; type: binding, rabbits; conditions: H-Ras reacted with analog by FTase, FIG. 11A
Description: (§1) Cells are harvested by scraping into 300 μl phosphate buffered saline containing protease inhibitor cocktail set 1 (calbiochem), followed by sonication on ice. Protein concentration is determined using a Bradford reagent kit (Pierce). The proteins from the FTase reaction mixtures or cell lysates are then separated using 12% SDS-polyacrylamide gels followed by transfer to nitrocellulose membranes. The membranes are incubated in blocking buffer PCT (see ELISA) for one hour at room temperature, after which the following steps are used: incubation with Anti-AG 1:1000 to 1:10,000 in PCT for one hour; 3×15 minute washes with vigorous shaking in PT buffer (see ELISA); incubation at room temperature one hour with goat anti-rabbit horseradish peroxidase-conjugated secondary antibody (Zymed) at a dilution of 1:20,000 in PCT buffer; and four 15 minute washes with PT buffer. The membranes are then subjected to enhanced chemiluminescence detection by incubation in 20 mL of detection buffer (Pierce Super Signal) for one minute.

HEK-cells = assay: AGOH incorporation into unblocked cells; type: cell-based, human; conditions: 30 μM AGOH, no lovastatin blockade
Description: Plates are coated with poly-L-Lysine and seeded with HEK-cells in Dulbecco's modified Eagle's medium with 5% fetal bovine serum. The cells ware then treated with DMSO as a vehicle, or 30 μM AGOH 5a is then added and incubated at 37° C. for the indicated time points. Medium is then removed and cells are extracted into 300 μL PBS containing Protease Inhibitor cocktail set 1 (Calbiochem). The samples are sonicated and centrifuged for 5 minutes. The supernatant is removed and used for western blotting.
as §1, with “The membranes are then subjected to enhanced chemiluminescence detection by incubation in 20 mL of detection buffer (Pierce Super Signal) for one minute.” left out

HEK-293 cells = assay: AGOH labeling and FTI inhibition of label in HEK-293 cells; type: cell-based, human
Description: Plates are coated with poly-L-Lysine and seeded with HEK-cells in Dulbecco's modified Eagle's medium with 5% fetal bovine serum. Cells are incubated in medium containing 30 μM lovostatin and 10 μM GGOH for 24 hrs. The media is poured off then replenished with media without lovostatin and GGOH and are treated with 3 μM FTI-277 (calbiochem), 20 μM GGTI-2147 (calbiochem) or no inhibitor and incubated at 37° C. for 1 hour. DMSO as a vehicle, or 100 μM AGOH is then added and incubated at 37° C. for two hours. Medium is then removed and cells are extracted into 300 μL PBS containing Protease Inhibitor cocktail set 1 (Calbiochem). The samples are sonicated and centrifuged for 5 minutes. The supernatant is removed and used for western blotting.
Cells are harvested by scraping into 300 μl phosphate buffered saline containing protease inhibitor cocktail set 1 (calbiochem), followed by sonication on ice. Protein concentration is determined using a Bradford reagent kit (Pierce). The proteins from the FTase reaction mixtures or cell lysates are then separated using 12% SDS-polyacrylamide gels followed by transfer to nitrocellulose membranes. […]

[1] = test system: human embryonic kidney (HEK-293) cells; assay: Acute cytoxicity of anilinogeraniol in HEK-293 cells; type: cell-based; conditions: up to 100 μM, three days, relative to controls
Source text: Farnesol, geranylgeraniol and a number of farnesol analogues become incorporated into cellular proteins when added to the culture media of growing cells. See e.g., Crick, et al. (1995) Biochem Biophys Res Commun 211, 590-9; Crick, et al. (1997) Biochem Biophys Res Commun 237, 483-7. These compounds are thought to traverse the plasma membrane and act as a substrate for sequential kinase reactions to give FPP, GGPP or the diphosphate analogue which can be then be utilized by FTase or GGTaseI to appropriately modify cellular proteins. Thai, et al. (1999) Proc Natl Acad Sci U S A 96, 13080-5. The kinases involved in the phosphorylation reactions have been characterized in plants, but not in mammalian cells. […] See Chehade, et al. (2000) J. Org. Chem. 65, […]. It is thought that nilinogeraniol might also cross the plasma membrane of cells, be converted to the diphosphate and become incorporated into proteins by FTase. However, it is also possible that anilinogeraniol might be toxic to mammalian cells. Accordingly, the acute cytoxicity of anilinogeraniol is examined by incubating human embryonic kidney (HEK-293) cells with up to 100 μM anilinogeraniol for three days.

FTase [2] = molecular target: T1, FTase (Homo sapiens, UniProt P49354+P49356); assay: FTase catalyzed in vitro modification of RDJ2 and H-Ras; type: biochemical; conditions: bacterially expressed proteins, intact Ca1a2X motifs
Description: 2 μg of recombinant bacterially expressed RDJ2 is incubated with 20 μM AGPP or FPP and 5 μg FTase in 50 μL of TrisHCl buffer (pH=7.4). […] The reactions are incubated for 30 min at 37° C., boiled with SDS and PAGE performed using the protein concentrations indicated on the blots.

FTase [3] = molecular target: T1, FTase; conditions: in vitro; cited from earlier work
[4] = test system: H460 (lung cancer cell line) and MCF7 (breast cancer cell line) cells; assay: Cell labeling with AFOH; type: cell-based; conditions: 30 μM AFOH overnight, FIG. 17B
Description: Plates are coated with poly-L-Lysine and seeded with in Dulbecco's modified Eagle's medium with 5% fetal bovine serum. The cells are then treated with DMSO as a vehicle, or 30 μM AFOH is added and incubated at 37° C. overnight. Medium is then removed and cells are extracted into 500 μL of RIPA buffer containing Protease Inhibitor cocktail I (calbiochem). The supernatant is removed and used for western blotting.
Protein concentration is determined using a Bradford reagent kit (Pierce) with 1:100 dilutions of the cell lysates. The proteins from the GGTaseI reaction mixtures or cell lysates are then separated using 12% SDS-polyacrylamide gels followed by transfer to nitrocellulose membranes. The membranes are incubated in blocking buffer PBS Casein and Tween buffer for one hour at room temperature, after which the following sequential steps are used: incubation with anti-AG or anti-NAG to 1:10,000 in PCT for one hour; 3×15 minute washes with vigorous shaking in PBS Tween buffer; incubation at room temperature one hour with goat anti-rabbit horseradish peroxidase-conjugated secondary antibody (Zymed) at a dilution of 1:20,000 in PCT buffer; and four 15 minute washes with PT buffer. The membranes are then subjected to enhanced chemiluminescene detection by incubation in 20 mL of detection buffer (Pierce Super Signal) for one minute.

GGTaseI [5] = molecular target: GGTaseI (Homo sapiens, UniProt P49354+P53609); assay: GGTaseI continuous spectrofluorometric assay with dansylated-GCaaX peptides; type: biochemical; conditions: for Substrate for GGTaseI with CVIL peptide: dansylated-GCVIL peptide; for Substrate for GGTaseI with CVIM peptide: dansylated-GCVIM peptide; for Substrate for GGTaseI: peptide not specified
Description: The kinetic constants Km^peptide and kcat with GGPP, and the analogs with each peptide are determined in triplicate measurements using a continuous spectrofluorometric assay adapted for a 96-well plate. The following assay components are assembled in individual wells of a 96-well plate and incubated at 30° C. for 20 minutes: 180 μL of assay butler (52 mM Tris-HCl, 12 mM MgCl2, 12 μM ZnCl2 pH 7.4), 40 μL of detergent (0.125% n-dodecyl-β-D-maltoside in assay buffer), 40 μL of reducing agent (50 mM DTT in assay buffer) 20 μL of GGPP or analog (200 μM in 25 mM NH4HCO3) and 20 μL of N-dansyl-GCaaX peptide (variable concentration). Fluorescence is detected using a time based scan at 30° C. for 120 minutes. The velocity of each reaction is determined by converting the rate of increase in fluorescence intensity units (FLU/s) to μM/s with equation 1. vi=(R·P)/(FMAX−FMIN) Equation 1
Where vi is the velocity of the reaction in μM/s. R is the rate of the reaction in FLU/s. P is equal to the concentration of modified product in μM (see below). FMAX is the fluorescence intensity of fully modified product. FMIN is the fluorescence of a reaction mixture that contained 20 μL of assay buffer in the place of GGTaseI. Complete modification of peptides is assumed when fluorescence stabilized for more than 10 minutes and is confirmed by RP-HPLC analysis of the reaction mixture.
Final analysis peptide concentrations are chosen based on preliminary determination of the Km^peptide with 0.5, 1, 5 and 10 μM dansyl-GCaaX concentrations (see below). The final analysis used 8 peptide concentrations which are: ⅙, ⅕, ¼, ½, ¾, 1, 2, and 3 times the estimated Km^peptide. The reaction is then initiated by the addition of 20 μL of GGTaseI (final 10 nM). Fluorescence enhancement is determined as described above.
Complete modification of peptides is assumed when fluorescence stabilized for more than 10 minutes and is confirmed by RP-HPLC analysis of the reaction mixture. […] Alternatively the extent of input peptide modified is determined by RP-HPLC analysis of the dansyl moiety peak absorbance corresponding to the unmodified and modified peptides. The percent of modified peptide relative to the total input peptide is used to calculate the concentration of product in the mixture.
The velocities of the reactions are plotted against the concentration of peptide and are fit to the Michaelis-Menten equation (Equation 2) to give the apparent kcat (appkcat) and Km^peptide (appKmpeptide) values. Where et is the total enzyme concentration and [Pep] is the total input peptide. The kcat/Km^peptide value is derived from a Lineweaver-Burke plot of the same data points. vi/et=(appkcat*[Pep])/(appKm^peptide+[Pep]) Equation 2

GGTaseI [6] = assay: GGTaseI protein substrate modification of H-Ras; type: biochemical; conditions: relatively large amount of GGTaseI, Western blot FIG. 17A

Molecule: para-bromo-anilinogeranyl diphosphate [pBr-AGPP]
- Recognition of analog-modified H-Ras by anti-NAG antibodies (anti-NAG antibodies): recognized
- Recognition of analog-modified H-Ras by anti-AG antibody (anti-AG antibody): able to cross-react

Molecule: C/C(=C\CO)CC/C=C(\C)CNc1ccccc1 [AGOH, Anilinogeranyl alcohol]
- Competition with endogenous pools of FPP (HEK-cells): competitive with the endogenous pools of FPP
- Onset of anilinogeranyl incorporation into proteins (HEK-cells; FIG. 14): within two hours
- Anilinogeranyl modified proteins detected with Anti-AG in cell extracts (HEK-293 cells; cells blocked with lovostatin and treated with GGOH, 100 μM AGOH, FIG. 12): numerous anilinogeranyl modified proteins
- Cell growth [1]: no decrease in cell growth
- Morphological changes [1]: no morphological changes

Molecule: C/C(=C\COP(=O)(O)OP(=O)(O)O)CC/C=C(\C)CNc1ccc([N+](=O)[O-])cc1 [NAGPP, para-nitro-anilinogeranyl diphosphate]
- FTase catalyzed in vitro modification of RDJ2 and Q61L H-Ras (FTase [2]): provided lipid thioether-linked proteins

Molecule: meta-methyl-anilinogeranyl diphosphate [mMe-AGPP]
- Recognition of analog-modified H-Ras by anti-AG antibody (anti-AG antibody): able to cross-react

Molecule: C/C(=C\COP(=O)(O)OP(=O)(O)O)CC/C=C(\C)CNc1ccccc1 [AGPP, anilinogeranyl diphosphate]
- Transferable by FTase to a CVLS substrate (FTase [3]): transferable
- FTase catalyzed in vitro modification of RDJ2 and Q61L H-Ras (FTase [2]): provided lipid thioether-linked proteins

Molecule: meta-cyano-anilinogeranyl diphosphate [mCN-AGPP]
- Recognition of analog-modified H-Ras by anti-NAG antibodies (anti-NAG antibodies): recognized
- Recognition of analog-modified H-Ras by anti-AG antibody (anti-AG antibody): able to cross-react

Molecule: meta-fluoro-anilinogeranyl diphosphate [mF-AGPP]
- Recognition of analog-modified H-Ras by anti-AG antibody (anti-AG antibody): able to cross-react

Molecule: COC(=O)[C@H](CCSC)NC(=O)c1ccc(NC[C@@H](N)CS)cc1-c1ccccc1 [FTI-277, reference compound]
- Effect of inhibitor on anilinogeranyl modification of cellular proteins (HEK-293 cells; cells incubated with AGOH, 3 μM FTI-277 or 20 μM GGTI-2147): no anilinogeranyl modified proteins are detected

Molecule: CC(=CCO)CCC=C(C)CCC=C(C)CNc1ccccc1 [AFOH, Anilinofarnesiol]
- AFOH incorporation into cellular proteins [4]: does appear to be incorporated into proteins

Molecule: CC(=CCCC(C)=CCOP(=O)(O)OP(=O)(O)O)CCC=C(C)CNc1ccc([N+](=O)[O-])cc1 [NAFPP, pNO2-anilinofarnesyl diphosphate]
- Substrate for GGTaseI with CVIL peptide (GGTaseI [5]): are substrates when CVIL is the target
- Substrate for GGTaseI with CVIM peptide (GGTaseI [5]): none of the AGPP analogs or NAFPP are substrates
- Substrate for GGTaseI (GGTaseI [5]): both substrates
- Incorporation of analog into H-Ras in vitro (GGTaseI [6]): incorporated into the protein

Molecule: anilinofarnesyl diphosphate [AFPP]
- Substrate for GGTaseI (GGTaseI [5]): both substrates
- Incorporation of analog into H-Ras in vitro (GGTaseI [6]): incorporated into the protein

Molecule: para-methyl-anilinogeranyl diphosphate [pMe-AGPP]
- Recognition of analog-modified H-Ras by anti-AG antibody (anti-AG antibody): able to cross-react

Molecule: para-cyano-anilinogeranyl diphosphate [pCN-AGPP]
- Recognition of analog-modified H-Ras by anti-NAG antibodies (anti-NAG antibodies): recognized

Molecule: CC(=CCC/C(C)=C/COP(=O)(O)OP(=O)(O)O)CNc1ccc(F)cc1 [pF-AGPP, para-fluoro-anilinogeraniol diphosphate]
- Recognition of analog-modified H-Ras by anti-AG antibody (anti-AG antibody): able to cross-react

Molecule: ortho-fluoro-anilinogeranyl diphosphate [oF-AGPP]
- Recognition of analog-modified H-Ras by anti-AG antibody (anti-AG antibody): able to cross-react

Molecule: CC(C)=CCC/C(C)=C/CC/C(C)=C/CC/C(C)=C/COP(=O)(O)OP(=O)(O)O [GGPP, geranylgeranyl diphosphate, reference compound]
- Substrate for GGTaseI with CVIL peptide (GGTaseI [5]): confirmed to be a substrate
- Substrate for GGTaseI with CVIM peptide (GGTaseI [5]): confirmed to be a substrate

Molecule: meta-bromo-anilinogeranyl diphosphate [mBr-AGPP]
- Recognition of analog-modified H-Ras by anti-AG antibody (anti-AG antibody): able to cross-react
